In EP4707277A1, “NOVEL HETEROCYCLIC AMINE DERIVATIVES AND PHARMACEUTICAL COMPOSITION COMPRISING SAME” (Daewoong Pharmaceutical Co., Ltd., priority 2023, dated 2024):
Like-named read-outs stand apart in the source and are kept apart here.

Tests used:
[1] = molecular target: T1, ITK (Homo sapiens, UniProt Q08881); test: Inhibitory activity against ITK, ADP-Glo Kinase system (Promega); format: biochemical
T1 construct: purchased Signalchem I13-11G-10
T1 sequence (Q08881 1-620): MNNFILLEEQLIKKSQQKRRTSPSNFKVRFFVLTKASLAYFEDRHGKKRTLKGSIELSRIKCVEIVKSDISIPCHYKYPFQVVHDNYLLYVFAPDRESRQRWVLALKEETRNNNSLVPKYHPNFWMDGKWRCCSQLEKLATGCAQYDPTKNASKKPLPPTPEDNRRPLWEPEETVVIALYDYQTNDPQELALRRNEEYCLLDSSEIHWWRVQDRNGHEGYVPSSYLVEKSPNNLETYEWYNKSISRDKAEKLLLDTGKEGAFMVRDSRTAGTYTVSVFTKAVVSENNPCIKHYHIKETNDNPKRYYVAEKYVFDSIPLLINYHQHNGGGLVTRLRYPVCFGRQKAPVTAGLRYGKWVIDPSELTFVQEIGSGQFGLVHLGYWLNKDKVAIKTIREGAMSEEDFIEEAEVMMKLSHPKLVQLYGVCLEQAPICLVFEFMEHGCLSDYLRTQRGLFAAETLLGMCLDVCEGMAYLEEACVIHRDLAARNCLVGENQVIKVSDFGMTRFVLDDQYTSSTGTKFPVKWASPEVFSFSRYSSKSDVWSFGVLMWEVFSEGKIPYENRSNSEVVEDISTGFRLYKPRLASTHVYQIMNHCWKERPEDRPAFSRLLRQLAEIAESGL
In short: (§1)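 IC50 values were fitted from kinase reactions run for 1 h at 30°C with either 1 mM ATP or ATP at Km (10 µM for BTK, 25 µM for ITK). Reactions used 0.2 µg/µl poly(Glu4,Tyr1), recombinant human enzyme (BTK 10 ng, ITK 4 ng per reaction) in Tris pH 7.5 Mn/Mg buffer with 1% DMSO. ADP formed was read by ADP-Glo luminescence.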

[2] = molecular target: T2, BTK (Homo sapiens, UniProt Q06187); test: Inhibitory activity against BTK, ADP-Glo Kinase system (Promega); format: biochemical
T2 construct: purchased Signalchem B10-10H
T2 sequence (Q06187 whole entry): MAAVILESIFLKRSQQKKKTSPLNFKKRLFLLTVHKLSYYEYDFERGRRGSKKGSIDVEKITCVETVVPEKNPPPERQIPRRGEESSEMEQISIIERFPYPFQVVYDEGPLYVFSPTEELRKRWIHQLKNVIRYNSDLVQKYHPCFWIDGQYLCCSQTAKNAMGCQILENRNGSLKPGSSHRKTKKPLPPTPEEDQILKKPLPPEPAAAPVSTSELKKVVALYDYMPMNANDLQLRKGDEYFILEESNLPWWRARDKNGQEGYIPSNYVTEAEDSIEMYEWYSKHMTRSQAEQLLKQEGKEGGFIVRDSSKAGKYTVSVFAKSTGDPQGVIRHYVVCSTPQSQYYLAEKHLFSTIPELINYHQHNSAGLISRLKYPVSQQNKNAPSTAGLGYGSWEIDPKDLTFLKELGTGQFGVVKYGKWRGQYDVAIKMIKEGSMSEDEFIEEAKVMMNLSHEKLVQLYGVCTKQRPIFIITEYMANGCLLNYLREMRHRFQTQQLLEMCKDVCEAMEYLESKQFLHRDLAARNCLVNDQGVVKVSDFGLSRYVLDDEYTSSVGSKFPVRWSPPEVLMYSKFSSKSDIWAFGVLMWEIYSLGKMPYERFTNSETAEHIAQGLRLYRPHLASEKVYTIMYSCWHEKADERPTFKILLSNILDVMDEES
In short: as §1

[3] = Km ATP (ITK: 25uM), read-out: ITK IC50(nM) Km ATP
[4] = Km ATP (BTK: 10 uM), read-out: BTK IC50(nM) Km ATP
[5] = 1mM ATP, read-out: ITK IC50(nM) 1mM ATP
[6] = 1mM ATP, read-out: BTK IC50(nM) 1mM ATP

SMILES	IC50 [1, 3]	IC50 [2, 4]	IC50 [1, 5]	IC50 [2, 6]
C=CC(=O)N1CCC=C(c2nc(Nc3ncc(C)s3)cc3c2ccn3C(C)C)CC1 [Example 26, 1-(4-(1-isopropyl-6-((5-methylthiazol-2-yl)amino)-1H-pyrrolo[3,2-c]pyridin-4-yl)-2,3,6,7-tetrahydro-1H-azepin-1-yl)prop-2-en-1-one]	≤ 20 nM	≤ 20 nM		
C=CC(=O)N1CCC=C(c2nc(Nc3ncc(C)s3)cc3c2ccn3C(C)(C)C#N)C1 [Example 23, 2-(4-(1-acryloyl-1,2,5,6-tetrahydropyridin-3-yl)-6-((5-methylthiazol-2-yl)amino)-1H-pyrrolo[3,2-c]pyridin-1-yl)-2-methylpropanenitrile]	≤ 20 nM	20 to 100 nM		
C=CC(=O)Nc1cc(-c2nc(Nc3ncc(C)s3)cc3c2ccn3C(C)C)c(F)cc1F [Example 60, N-(2,4-difluoro-5-(1-isopropyl-6-((5-methzylthiazol-2-yl)amino)-1H-pyrrolo[3,2-c]pyridin-4-yl)phenyl)acrylamide]	≤ 20 nM	≤ 20 nM	≤ 20 nM	≤ 20 nM
C=CC(=O)Nc1c(F)ccc(-c2nc(Nc3ncc(C)s3)cc3c2ccn3C)c1F [Example 57, N-(2,6-difluoro-3-(1-methyl-6-((5-methylthiazol-2-yl)amino)-1H-pyrrolo[3,2-c]pyridin-4-yl)phenyl)acrylamide]	≤ 20 nM	≤ 20 nM		
C=CC(=O)Nc1cc(-c2nc(Nc3ncc(C)s3)cc3c2ccn3CC2CC2)c(F)cc1F [Example 66, N-(5-(1-(cyclopropylmethyl)-6-((5-methylthiazol-2-yl)amino)-1H-pyrrolo[3,2-c]pyridin-4-yl)-2,4-difluorophenyl)acrylamide]	≤ 20 nM	≤ 20 nM	20 to 100 nM	≤ 20 nM
C=CC(=O)N1CC=C(c2nc(Nc3ncc(C)s3)cc3c2ccn3CC(F)(F)F)CC1 [Example 19, 1-(4-(6-((5-methylthiazol-2-yl)amino)-1-(2,2,2-trifluoroethyl)-1H-pyrrolo[3,2-c]pyridin-4-yl)-3,6-dihydropyridin-1(2H)-yl)prop-2-en-1-one]	≤ 20 nM	≤ 20 nM	100 to 500 nM	20 to 100 nM
C=CC(=O)N1C2C=C(c3nc(Nc4ncc(C)s4)cc4c3ccn4CC(C)C)CC1CCC2 (stereo not drawn) [Example 38, 1-(3-(1-isobutyl-6-((5-methylthiazol-2-yl)amino)-1H-pyrrolo[3,2-c]pyridin-4-yl)-9-azabicyclo[3.3.1]non-2-en-9-yl)prop-2-en-1-one]			≤ 20 nM	≤ 20 nM
C=CC(=O)N1CC=C(c2nc(Nc3ncc(C)s3)cc3c2ccn3C(F)F)CC1 [Example 21, 1-(4-(1-(difluoromethyl)-6-((5-methylthiazol-2-yl)amino)-1H-pyrrolo[3,2-c]pyridin-4-yl)-3,6-dihydropyridin-1(2H)-yl)prop-2-en-1-one]	≤ 20 nM	≤ 20 nM		
C=CC(=O)N1C[C@@H](F)[C@H](Oc2nc(Nc3ncc(C)s3)cc3c2ccn3C(C)C)C1 [Example 91, 1-((3R,4R)-3-fluoro-4-((1-isopropyl-6-((5-methylthiazol-2-yl)amino)-1H-pyrrolo[3,2-c]pyridin-4-yl)oxy)pyrrolidin-1-yl)prop-2-en-1-one]			≤ 20 nM	≤ 20 nM

Results, then the compound that gave them:

IC50 [1, 3]	IC50 [2, 4]	IC50 [1, 5]	IC50 [2, 6]	SMILES
		> 500 nM	20 to 100 nM	C=CC(=O)N1CCC[C@@H](COc2nc(Nc3ncc(C)s3)cc3c2ccn3CC(C)C)C1 [Example 214, (R)-1-(3-(((1-isobutyl-6-((5-methylthiazol-2-yl)amino)-1H-pyrrolo[3,2-c]pyridin-4-yl)oxy)methyl)piperidin-1-yl)prop-2-en-1-one]
		> 500 nM	> 500 nM	Cc1cnc(Nc2cc3c(ccn3CC(C)C)c(O[C@H]3CCN(C(=O)/C=C/CN(C)C)C3)n2)s1 [Example 227, (S,E)-4-(dimethylamino)-1-(3-((1-isobutyl-6-((5-methylthiazol-2-yl)amino)-1H-pyrrolo[3,2-c]pyridin-4-yl)oxy)pyrrolidin-1-yl)but-2-en-1-one]
		> 500 nM	> 500 nM	C=CC(=O)N1CC[C@H](Oc2nc(Nc3cc(F)ccc3C)cc3c2ccn3C)C1 [Example 138, (S)-1-(3-((6-((5-fluoro-2-methylphenyl)amino)-1-methyl-1H-pyrrolo[3,2-c]pyridin-4-yl)oxy)pyrrolidin-1-yl)prop-2-en-1-one]
		≤ 20 nM	≤ 20 nM	C=CC(=O)N1CC[C@H](Oc2nc(Nc3ncc(C)s3)cc3c2ccn3C)C1 [Example 130, (S)-1-(3-((1-methyl-6-((5-methylthiazol-2-yl)amino)-1H-pyrrolo[3,2-c]pyridin-4-yl)oxy)pyrrolidin-1-yl)prop-2-en-1-one]
		≤ 20 nM	≤ 20 nM	C=CC(=O)N1CC[C@H](Oc2nc(Nc3ncc(C)s3)cc3c2ccn3[C@@H](C)CC)C1 [Example 111, 1-((S)-3-((1-((S)-sec-butyl)-6-((5-methylthiazol-2-yl)amino)-1H-pyrrolo[3,2-c]pyridin-4-yl)oxy)pyrrolidin-1-yl)prop-2-en-1-one]
		≤ 20 nM	≤ 20 nM	C=CC(=O)N1C[C@H](F)[C@H](Oc2nc(Nc3ncc(C)s3)cc3c2ccn3C)C1 [Example 131, 1-((3S,4R)-3-fluoro-4-((1-methyl-6-((5-methylthiazol-2-yl)amino)-1H-pyrrolo[3,2-c]pyridin-4-yl)oxy)pyrrolidin-1-yl)prop-2-en-1-one]
		≤ 20 nM	≤ 20 nM	C=CC(=O)N1CCC[C@@H]1COc1nc(Nc2ncc(C)s2)cc2c1ccn2CC(F)(F)F [Example 207, (R)-1-(2-(((6-((5-methylthiazol-2-yl)amino)-1-(2,2,2-trifluoroethyl)-1H-pyrrolo[3,2-c]pyridin-4-yl)oxy)methyl)pyrrolidin-1-yl)prop-2-en-1-one]
		20 to 100 nM	≤ 20 nM	C=CC(=O)N1CC(C)(Oc2nc(Nc3ncc(C)s3)cc3c2ccn3CC)C1 [Example 155, 1-(3-((1-ethyl-6-((5-methylthiazol-2-yl)amino)-1H-pyrrolo[3,2-c]pyridin-4-yl)oxy)-3-methylazetidin-1-yl)prop-2-en-1-one]
		≤ 20 nM	≤ 20 nM	C=CC(=O)N1CC(C)(Oc2nc(Nc3ncc(C)s3)cc3c2ccn3CCC(C)C)C1 [Example 177, 1-(3-((1-isopentyl-6-((5-methylthiazol-2-yl)amino)-1H-pyrrolo[3,2-c]pyridin-4-yl)oxy)-3-methylazetidin-1-yl)prop-2-en-1-one]
		≤ 20 nM	≤ 20 nM	C=CC(=O)N1C[C@H](F)[C@H](Oc2nc(Nc3ncc(C)s3)cc3c2ccn3CC(C)(C)O)C1 [Example 141, 1-((3S,4R)-3-fluoro-4-((1-(2-hydroxy-2-methylpropyl)-6-((5-methylthiazol-2-yl)amino)-1H-pyrrolo[3,2-c]pyridin-4-yl)oxy)pyrrolidin-1-yl)prop-2-en-1-one]
		≤ 20 nM	≤ 20 nM	C=CC(=O)N1CC[C@H](Oc2nc(Nc3ncc(C)s3)cc3c2ccn3CCC)C1 [Example 126, (S)-1-(3-((6-((5-methylthiazol-2-yl)amino)-1-propyl-1H-pyrrolo[3,2-c]pyridin-4-yl)oxy)pyrrolidin-1-yl)prop-2-en-1-one]
		≤ 20 nM	≤ 20 nM	C=CC(=O)N1C[C@@H](Oc2nc(Nc3ncc(C)s3)cc3c2ccn3CC)C[C@@H]1C [Example 186, 1-((2S,4S)-4-((1-ethyl-6-((5-methylthiazol-2-yl)amino)-1H-pyrrolo[3,2-c]pyridin-4-yl)oxy)-2-methylpyrrolidin-1-yl)prop-2-en-1-one]
